Test results taken from patent publication EP0313703A1, “Use of 24,25-dihydroxycholecalciferole in the treatment of urinary calculus” (KUREHA KAGAKU KOGYO KABUSHIKI KAISHA, priority 1987, dated 1989).

Columns and labels:
renal calculus = experiment: Inhibition of formation of renal calculus in model rats (ethylene glycol + 1α-hydroxycholecarciferol); assay type: in vivo, Wistar rats; conditions: 10 µg/kg/1 ml/day p.o., four weeks
Experimental: As the test animals for renal calculus, the following rats were used.
Twenty male Wistar rats (age of 8 weeks and body weight of about 200 g) were allowed to take a water containing 0.5 % of ethylene glycol freely, and a mixture of 0.5 µg of 1α-hydroxycholecarciferol and 0.1 ml of triglyceride of a fatty acid of 8 to 10 carbon atoms was forcibly and orally administered by a stomach tube every other day for four weeks, thereafter being used as the test animals.
24R,25-(OH)₂-D₃ in the triglyceride of a fatty acid of 8 to 10 carbon atoms containing 2 % of ethanol was forcibly and orally administered to each of the test animals at a dose of 10µg/kg/1 ml/day by a stomach tube, and to each animals of the control group, the triglyceride of a fatty acid of 8 to 10 carbon atoms was administered in the same manner as above.
The animals were slaughtered after four weeks from the first administration, and the kidney of the animal was extirpated therefrom after the exsanguination and immediately photographed by soft X-ray. Furhter the cross section of the extirpated kidney containing papilla was observed by naked eyes.

male or female ICR mice = experiment: 30-day repeated oral administration: body weight and histopathology; assay type: in vivo; conditions: 10, 100 or 1000 µg/kg daily p.o. for 30 days
Experimental: After dissolving 24R,25-(OH)₂-D₃, at a prescribed concentration, into the triglyceride of a fatty acid of 8 to 10 carbon atoms containing 1 % of ethanol, the solution was forcibly and orally administered to each of the three groups of the male or female ICR mice continuously for 30 days at a daily dose of 10, 100 or 1000 µg/kg.
The examined organs are as follows: brain, heart, lung, liver, kidney, adrenal, spleen, pancreas, thyroid, hypophysis, thymus, mesentric lymph node, testis, ovary, uterus, stomach, small intestines (jejunum, ileum and duodenum), large intestines (colon and cecum), eyeball, submandibular gland, urinary bladder, backskin, muscle, sternum, marrow of sternum, femur and marrow of femur.

[1] = Acute oral toxicity, single dose, 2 weeks observation; assay type: in vivo, mice; conditions: mouse, in vivo, po, male ICR mice; read-out: acute oral LD₅₀
Experimental: (§1) After dissolving the present substance in ethanol, the thus formed solution was diluted by a triglyceride of a fatty acid of 8 to 10 carbon atoms so that the concentration of ethanol became 2 %. The thus formed solution was orally (p.o.) administered to each of 10 male ICR mice (age of 6 weeks, body weight of 25±3 g) at dose of 150 mg/kg. […] Accordingly, the acute oral LD₅₀ of the present substance is not less than […] and the present substance can be said to be extremely safe.

male ICR mice = experiment: as above; assay type: in vivo; conditions: 150 mg/kg p.o.
Experimental: as §1

SMILES | calculi in the pelvis and the papilla of the kidney, observation by naked eyes (renal calculus; 10 rats, control group: 8 cases among 10 rats) | radial deposition of crystals in the renal parenchyma, observation by naked eyes (renal calculus; 10 rats, remarkably found in the control group) | formation of calculus, soft X-ray photograph of the kidney (renal calculus; compared with control rats) | body weight change (growth curve) (male or female ICR mice) | histopathological examination of organs (hematoxylin·eosin) (male or female ICR mice) | LD50 at 336 h [1] [mg/kg] | survival / toxic symptoms (male ICR mice; 10 male ICR mice, observed for 2 weeks) | biochemical examination of the blood, autopsy and histopathological examination versus control animals (male ICR mice; male ICR mice, after slaughter at 2 weeks)
C=C1CC[C@H](O)C/C1=C/C=C1\CCC[C@]2(C)[C@@H]([C@H](C)CC[C@@H](O)C(C)(C)O)CC[C@@H]12 [24R,25-(OH)₂-D₃] | any clear calculus was never recognized | one rat of 10 rats | clear inhibition of the formation of calculus | any significant difference in the body weight change was not recognized | any abnormal findings were not particularly recognized |  |  | 
C=C1CC[C@H](O)C/C1=C/C=C1\CCC[C@]2(C)[C@@H]([C@H](C)CCC(O)C(C)(C)O)CC[C@@H]12 (some centres unmarked) [the present substance, 24,25-dihydroxycholecalciferol] |  |  |  |  |  | ≥ 100 | all the animals (10 mice) survived without any abnormality | no difference was found
